# Measurements published in patent US11608335B2, “Somatostatin modulators and uses thereof” (CRINETICS PHARMACEUTICALS, INC., priority 2018, dated 2023).
# Target: human somatostatin receptor subtype 5 (Homo sapiens, UniProt P35346)
# Test: cAMP assay for SST5R (inhibition of cAMP via human SST5 receptor)
# Sequence of human somatostatin receptor subtype 5 (P35346 whole entry): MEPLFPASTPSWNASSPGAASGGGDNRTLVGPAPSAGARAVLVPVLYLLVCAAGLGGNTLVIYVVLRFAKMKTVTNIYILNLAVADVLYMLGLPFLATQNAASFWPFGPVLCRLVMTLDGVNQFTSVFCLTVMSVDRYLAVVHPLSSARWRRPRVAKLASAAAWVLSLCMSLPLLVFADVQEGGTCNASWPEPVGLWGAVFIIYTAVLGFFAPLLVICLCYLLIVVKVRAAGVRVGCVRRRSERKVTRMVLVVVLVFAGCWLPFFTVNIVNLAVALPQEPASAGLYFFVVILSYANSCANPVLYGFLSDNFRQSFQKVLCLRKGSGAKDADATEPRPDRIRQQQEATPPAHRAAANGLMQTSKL
row,EC50 [nM],Compound
1,100 to 1000,"CS(=O)(=O)c1cccc(-c2cncc(-c3nc4cc(F)cc(F)c4[nH]3)c2N2CC[C@H](N)C2)c1 [Compound 2-93, (3S)-1-[3-(4,6-difluoro-1H-1,3-benzodiazol-2-yl)-5-(3-methanesulfonylphenyl)pyridin-4-yl]pyrrolidin-3-amine]"
2,10 to 100,"Cc1ccc(F)cc1-c1cncc(-c2nc3cc(F)cc(F)c3[nH]2)c1N1CC(CN)C1 [Compound 1-46, 1-{1-[3-(4,6-difluoro-1H-1,3-benzodiazol-2-yl)-5-(5-fluoro-2-methylphenyl)pyridin-4-yl]azetidin-3-yl}methanamine]"
3,10 to 100,"Cc1ccccc1-c1cncc(-c2nc3cc(F)cc(F)c3[nH]2)c1N1CC(CN)C1 [Compound 1-30, 1-{1-[3-(4,6-difluoro-1H-1,3-benzodiazol-2-yl)-5-(2-methylphenyl)pyridin-4-yl]azetidin-3-yl}methanamine]"
4,10 to 100,"CON=Cc1cc(F)cc(-c2cncc(-c3nc4c(F)cccc4[nH]3)c2N2CC[C@H](N)C2)c1 [Compound 2-9, (3S)-1-[3-(4-fluoro-1H-1,3-benzodiazol-2-yl)-5-{3-fluoro-5-[(methoxyimino)methyl]phenyl}pyridin-4-yl]pyrrolidin-3-amine]"
5,< 10,"Cc1cccc2[nH]c(-c3cncc(-c4ccnc(C(N)=O)c4)c3N3CC[C@](C)(N)C3)nc12 [Compound 2-156, 4-[(3S)-3-amino-3-methylpyrrolidin-1-yl]-5-(4-methyl-1H-1,3-benzodiazol-2-yl)-[3,4′-bipyridine]-2′-carboxamide]"
6,10 to 100,"N#Cc1cccc(-c2cncc(-c3nc4cccc(F)c4[nH]3)c2N2C[C@@H](N)[C@@H](O)C2)c1 (racemic) [Compound 2-68, 3-{4-[cis-3-amino-4-hydroxypyrrolidin-1-yl]-5-(4-fluoro-1H-1,3-benzodiazol-2-yl)pyridin-3-yl}benzonitrile]"
7,< 10,"N#Cc1cc(F)cc(-c2cncc(-c3nc4ccc(F)c(F)c4[nH]3)c2N2CC[C@H](N)C2)c1 [Compound 2-99, 3-{4-[(3S)-3-aminopyrrolidin-1-yl]-5-(4,5-difluoro-1H-1,3-benzodiazol-2-yl)pyridin-3-yl}-5-fluorobenzonitrile]"
8,10 to 100,"CS(=O)(=O)c1cccc(-c2cncc(-c3nc4cccc(F)c4[nH]3)c2N2CC[C@H](N)C2)c1 [Compound 2-58, (3S)-1-[3-(4-fluoro-1H-1,3-benzodiazol-2-yl)-5-(3-methanesulfonylphenyl)pyridin-4-yl]pyrrolidin-3-amine]"
9,10 to 100,"NC(=O)c1cc(-c2cncc(-c3nc4c(F)ccc(F)c4[nH]3)c2N2CC[C@H](N)C2)ccc1F [Compound 2-61, 5-{4-[(3S)-3-aminopyrrolidin-1-yl]-5-(4,7-difluoro-1H-1,3-benzodiazol-2-yl)pyridin-3-yl}-2-fluorobenzamide]"
10,> 1000,"COc1ccc(-c2cncc(-c3nc4cccc(F)c4[nH]3)c2N2CC[C@H](N)C2)cc1C(N)=O [Compound 2-73, 5-{4-[(3S)-3-aminopyrrolidin-1-yl]-5-(4-fluoro-1H-1,3-benzodiazol-2-yl)pyridin-3-yl}-2-methoxybenzamide]"
11,100 to 1000,"N#Cc1cccc(-c2cncc(-c3nc4cccc(F)c4[nH]3)c2N2C[C@@H](N)[C@H](c3ccccc3)C2)c1 (racemic) [Compound 2-56, 3-{4-[trans-3-amino-4-phenylpyrrolidin-1-yl]-5-(4-fluoro-1H-1,3-benzodiazol-2-yl)pyridin-3-yl}benzonitrile]"
12,< 10,"N#Cc1cc(-c2cncc(-c3nc4cccc(Cl)c4[nH]3)c2N2CC[C@H](N)C2)ccn1 [Compound 2-161, 4-[(3S)-3-aminopyrrolidin-1-yl]-5-(4-chloro-1H-1,3-benzodiazol-2-yl)-[3,4′-bipyridine]-2′-carbonitrile]"
13,< 10,"COc1c(F)cccc1-c1cncc(-c2nc3cc(F)cc(F)c3[nH]2)c1N1CC(C(C)N)C1 (stereo not drawn) [Compound 1-73, 1-{1-[3-(4,6-difluoro-1H-1,3-benzodiazol-2-yl)-5-(3-fluoro-2-methoxyphenyl)pyridin-4-yl]azetidin-3-yl}ethan-1-amine]"
14,< 10,"Cc1cccc2nc(-c3cncc(-c4ccc(F)c(C#N)c4)c3N3CC[C@H](N)C3)n(C)c12 [Compound 2-134, 5-{4-[(3S)-3-aminopyrrolidin-1-yl]-5-(1,7-dimethyl-1H-1,3-benzodiazol-2-yl)pyridin-3-yl}-2-fluorobenzonitrile]"
15,10 to 100,"Cc1cccc2[nH]c(-c3cncc(-c4cc(F)cc(C#N)c4)c3N3CC[C@H](N)C3)cc12 [Compound 2-129, 3-{4-[(3S)-3-aminopyrrolidin-1-yl]-5-(4-methyl-1H-indol-2-yl)pyridin-3-yl}-5-fluorobenzonitrile]"
16,10 to 100,"N#Cc1cccc(-c2cncc(-c3nc4cccc(F)c4[nH]3)c2N2C[C@H](CO)[C@@H](N)C2)c1 (racemic) [Compound 2-89, 3-{4-[trans-3-amino-4-(hydroxymethyl)pyrrolidin-1-yl]-5-(4-fluoro-1H-1,3-benzodiazol-2-yl)pyridin-3-yl}benzonitrile]"
17,< 10,"Cc1cc(-c2cncc(-c3nc4cc(F)cc(F)c4[nH]3)c2N2CC(CN)C2)ccc1F [Compound 1-47, 1-{1-[3-(4,6-difluoro-1H-1,3-benzodiazol-2-yl)-5-(4-fluoro-3-methylphenyl)pyridin-4-yl]azetidin-3-yl}methanamine]"
18,< 10,"Cc1cc(C)c2nc(-c3cncc(-c4cccc(C#N)c4)c3N3CC[C@](C)(N)C3)[nH]c2n1 [Compound 2-173, 3-{4-[(3S)-3-amino-3-methylpyrrolidin-1-yl]-5-{5,7-dimethyl-1H-imidazo[4,5-b]pyridin-2-yl}pyridin-3-yl}benzonitrile]"
19,10 to 100,"Cc1ccc(-c2cncc(-c3nc4cc(F)cc(F)c4[nH]3)c2N2CC(CN)C2)cc1F [Compound 1-55, 1-{1-[3-(4,6-difluoro-1H-1,3-benzodiazol-2-yl)-5-(3-fluoro-4-methylphenyl)pyridin-4-yl]azetidin-3-yl}methanamine]"
20,10 to 100,"CC1(N)CCN(c2c(-c3ccnc(N)c3)cncc2-c2nc3cccc(F)c3[nH]2)C1 (stereo not drawn) [Compound 2-15, 4-(3-amino-3-methylpyrrolidin-1-yl)-5-(4-fluoro-1H-1,3-benzodiazol-2-yl)-[3,4′-bipyridin]-2′-amine]"
21,10 to 100,"CCCn1c(-c2cncc(-c3cc(F)cc(C#N)c3)c2N2CC[C@H](N)C2)nc2ccccc21 [Compound 2-111, 3-{4-[(3S)-3-aminopyrrolidin-1-yl]-5-(1-propyl-1H-1,3-benzodiazol-2-yl)pyridin-3-yl}-5-fluorobenzonitrile]"
22,< 10,"C#Cc1cccc2[nH]c(-c3cncc(-c4cccc(C#N)c4)c3N3CC[C@H](N)C3)nc12 [Compound 2-84, 3-{4-[(3S)-3-Aminopyrrolidin-1-yl]-5-(4-ethynyl-1H-1,3-benzodiazol-2-yl)pyridin-3-yl}benzonitrile]"
23,100 to 1000,"N#Cc1ccc(-c2cncc(-c3nc4cccc(F)c4[nH]3)c2N2CC[C@H](N)C2)cc1 [Compound 2-42, 4-{4-[(3S)-3-aminopyrrolidin-1-yl]-5-(4-fluoro-1H-1,3-benzodiazol-2-yl)pyridin-3-yl}benzonitrile]"
24,10 to 100,"N#Cc1c(F)cccc1-c1cncc(-c2nc3c(F)ccc(F)c3[nH]2)c1N1CC[C@H](N)C1 [Compound 2-40, 2-{4-[(3S)-3-aminopyrrolidin-1-yl]-5-(4,7-difluoro-1H-1,3-benzodiazol-2-yl)pyridin-3-yl}-6-fluorobenzonitrile]"
